Assay results reported in patent US9657014B2, “Substituted 1,6-naphthyridines” (Hoffmann-La Roche Inc., priority 2012, dated 2017).

System: human embryonic stem cell derived neural stem cells (NSCs)
Experiment: Neural stem cell proliferation assay (neurogenesis assay)
Format: cell-based
Details: Homo sapiens, Neural stem cell, 96 h, concentration at which 150% activity of control (100%) is reached, ATP levels (CellTiterGlo) after 4 days incubation
Outline: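 NSCs derived from human ES cells by dual SMAD inhibition, seeded on polyornithin/laminin, dosed 4 h later (11 points, 8 μM to 8 nM). After 4 days at 37° C, ATP luminescence read; response = compound/medium control ×100, EC150 = concentration giving 150% of control.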

Question: How did the EC (150% of control) (Table 1, novel compounds) turn out when `COc1cccc(-c2cncc3ccc(C(=O)NCCCn4ccnc4)nc23)c1` [Example 38, N-(3-(1H-Imidazol-1-yl)propyl)-8-(3-methoxyphenyl)-1,6-naphthyridine-2-carboxamide] was run?
Answer: 1.95 µM

Question: For `O=C(NCc1ccc(C(F)(F)F)nc1)c1ccc2cncc(-c3ccccc3)c2n1` [Example 196, 8-Phenyl-[1,6]naphthyridine-2-carboxylic acid (6-trifluoromethyl-pyridin-3-ylmethyl)-amide], which EC (150% of control) (Table 2, known compounds) is on record?
Answer: 3.7 µM

Question: How did the EC (150% of control) (Table 1, novel compounds) turn out when `O=C(NCc1ccncc1)c1ccc2cncc(-c3cccc(Cl)c3)c2n1` [Example 29, 8-(3-Chlorophenyl)-N-(pyridin-4-ylmethyl)-1,6-naphthyridine-2-carboxamide] was run?
Answer: 0.51 µM

Question: For `CC(C)(C)CNC(=O)c1ccc2cncc(-c3ccccc3F)c2n1` [Example 118, 8-(2-Fluorophenyl)-N-neopentyl-1,6-naphthyridine-2-carboxamide], which EC (150% of control) (Table 1, novel compounds) is on record?
Answer: 0.04 µM

Question: For `O=C(NCCC(F)(F)F)c1ccc2cncc(-c3ccc(Cl)cc3)c2n1` [Example 64, 8-(4-Chlorophenyl)-N-(3,3,3-trifluoropropyl)-1,6-naphthyridine-2-carboxamide], which EC (150% of control) (Table 1, novel compounds) is on record?
Answer: 0.15 µM

Question: How did the EC (150% of control) (Table 1, novel compounds) turn out when `NC(=O)c1ccc2cncc(-c3ccc(Cl)nc3)c2n1` [Example 159, 8-(6-Chloropyridin-3-yl)-1,6-naphthyridine-2-carboxamide] was run?
Answer: 0.18 µM

Question: `COc1ccc(-c2cncc3ccc(C(=O)N4CCCCC4)nc23)cc1` [Example 183, [8-(4-Methoxy-phenyl)-[1,6]naphthyridin-2-yl]-piperidin-1-yl-methanone] was tested. Which EC (150% of control) (Table 2, known compounds) did it give?
Answer: 1.25 µM

Question: How did the EC (150% of control) (Table 2, known compounds) turn out when `O=C(NCc1ccc(Cl)cc1)c1ccc2cncc(-c3ccsc3)c2n1` [Example 201, 8-Thiophen-3-yl-[1,6]naphthyridine-2-carboxylic acid 4-chloro-benzylamide] was run?
Answer: 0.8 µM

Question: For `CS(=O)(=O)c1ccc(CNC(=O)c2ccc3cncc(-c4ccccc4F)c3n2)cc1` [Example 112, 8-(2-Fluorophenyl)-N-(4-(methylsulfonyl)benzyl)-1,6-naphthyridine-2-carboxamide], which EC (150% of control) (Table 1, novel compounds) is on record?
Answer: 0.25 µM

Question: How did the EC (150% of control) (Table 1, novel compounds) turn out when `CC(NC(=O)c1ccc2cncc(-c3ccc(F)c(F)c3)c2n1)c1ccc(S(C)(=O)=O)cc1` (stereo not shown) [Example 111, 8-(3,4-Difluorophenyl)-N-(1-(4-(methylsulfonyl)phenyl)ethyl)-1,6-naphthyridine-2-carboxamide] was run?
Answer: 0.3 µM

Question: `CCCCCCNC(=O)c1ccc(-c2cncc3ccc(C(N)=O)nc23)cc1` [Example 147, 8-(4-(Hexylcarbamoyl)phenyl)-1,6-naphthyridine-2-carboxamide] was tested. Which EC (150% of control) (Table 1, novel compounds) did it give?
Answer: 0.09 µM

Question: Which EC (150% of control) (Table 2, known compounds) does the source give for `COc1ccc(-c2cncc3ccc(C(=O)N4CCOCC4)nc23)cc1` [Example 182, [8-(4-Methoxy-phenyl)-[1,6]naphthyridin-2-yl]-morpholin-4-yl-methanone] here?
Answer: 5.4 µM

Question: Which EC (150% of control) (Table 1, novel compounds) does the source give for `NC(=O)c1ccc2cncc(-c3cccc(Cl)c3)c2n1` [Example 167, 8-(3-Chlorophenyl)-1,6-naphthyridine-2-carboxamide] here?
Answer: 0.09 µM

Question: `Cc1cnc(CNC(=O)c2ccc3cncc(-c4ccc(Cl)cc4)c3n2)cn1` [Example 48, 8-(4-Chlorophenyl)-N-((5-methylpyrazin-2-yl)methyl)-1,6-naphthyridine-2-carboxamide] was tested. Which EC (150% of control) (Table 1, novel compounds) did it give?
Answer: 0.88 µM

Question: How did the EC (150% of control) (Table 1, novel compounds) turn out when `CC(C)(C)CNC(=O)c1ccc2cncc(-c3ccc(F)cc3)c2n1` [Example 117, 8-(4-Fluorophenyl)-N-neopentyl-1,6-naphthyridine-2-carboxamide] was run?
Answer: 0.07 µM

Question: `CC(NC(=O)c1ccc2cncc(-c3ccc(Cl)nc3)c2n1)C(C)(C)O` (stereo not shown) [Example 174, 8-(6-Chloropyridin-3-yl)-N-(3-hydroxy-3-methylbutan-2-yl)-1,6-naphthyridine-2-carboxamide] was tested. Which EC (150% of control) (Table 1, novel compounds) did it give?
Answer: 0.61 µM

Question: Which EC (150% of control) (Table 1, novel compounds) does the source give for `CC(C)(C)CNC(=O)c1ccc2cncc(-c3cc(F)ccc3F)c2n1` [Example 122, 8-(2,5-Difluorophenyl)-N-neopentyl-1,6-naphthyridine-2-carboxamide] here?
Answer: 0.12 µM

Question: For `COc1ccc(-c2cncc3ccc(C(=O)NCc4ccccc4)nc23)cc1` [Example 184, 8-(4-Methoxy-phenyl)-[1,6]naphthyridine-2-carboxylic acid benzylamide], which EC (150% of control) (Table 2, known compounds) is on record?
Answer: 0.16 µM

Question: With `CS(=O)(=O)c1ccc(CNC(=O)c2ccc3cncc(-c4ccccc4)c3n2)cc1` [Example 195, 8-Phenyl-[1,6]naphthyridine-2-carboxylic acid 4-methanesulfonyl-benzylamide] as the molecule, how does the EC (150% of control) (Table 2, known compounds) read?
Answer: 4 µM

Question: For `CS(=O)(=O)CCNC(=O)c1ccc2cncc(-c3ccc(F)cc3)c2n1` [Example 135, 8-(4-Fluorophenyl)-N-(2-(methylsulfonyl)ethyl)-1,6-naphthyridine-2-carboxamide], which EC (150% of control) (Table 1, novel compounds) is on record?
Answer: 0.08 µM

Question: Which EC (150% of control) (Table 1, novel compounds) does the source give for `O=C(NCC(F)(F)F)c1ccc2cncc(-c3cccc(F)c3)c2n1` [Example 123, 8-(3-Fluorophenyl)-N-(2,2,2-trifluoroethyl)-1,6-naphthyridine-2-carboxamide] here?
Answer: 0.38 µM

Question: For `CC(NC(=O)c1ccc2cncc(-c3ccc(C(F)(F)F)cc3)c2n1)C(C)(C)O` (stereo not shown) [Example 161, N-(3-Hydroxy-3-methylbutan-2-yl)-8-(4-(trifluoromethyl)phenyl)-1,6-naphthyridine-2-carboxamide], which EC (150% of control) (Table 1, novel compounds) is on record?
Answer: 0.06 µM

Question: For `Cn1cc(NC(=O)c2ccc3cncc(-c4ccc(Cl)cc4)c3n2)cn1` [Example 55, 8-(4-Chlorophenyl)-N-(1-methyl-1H-pyrazol-4-yl)-1,6-naphthyridine-2-carboxamide], which EC (150% of control) (Table 1, novel compounds) is on record?
Answer: 0.25 µM

Question: With `O=C(NCc1ccncc1)c1ccc2cncc(Br)c2n1` [Example 9, 8-Bromo-[1,6]naphthyridine-2-carboxylic acid (pyridin-4-ylmethyl)-amide] as the molecule, how does the EC (150% of control) (Table 1, novel compounds) read?
Answer: 1.27 µM

Question: How did the EC (150% of control) (Table 1, novel compounds) turn out when `CN(C)S(=O)(=O)c1ccc(-c2cncc3ccc(C(N)=O)nc23)cc1` [Example 106, 8-(4-(N,N-Dimethylsulfamoyl)phenyl)-1,6-naphthyridine-2-carboxamide] was run?
Answer: 0.19 µM
